Results published in patent publication US9034862B2, “Compositions and methods for the treatment of cancer” (priority 2011, dated 2015).

Key:
[1] = system: human cervix carcinoma HeLa cells; experiment: MTT assay, HeLa; type: cell-based
Description: Solutions of the platinum compounds were freshly prepared in sterile PBS before use and their concentrations quantitated by atomic absorption spectroscopy. Cells were seeded on a 96-well plate (1200 cells per well for cancer cells and 1800 cells per well for the normal lung fibroblasts) in 100 μL RPMI or DMEM media, and incubated for 24 h. […] The cells were then treated with 20 μL of 3-(4,5-dimethylthiazol-2-yl)-2,5-diphenyltetrazolium bromide (MTT) (5 mg/mL in PBS) and incubated for 4 h. The medium was removed, 100 μL of DMSO was added to the cells, and the absorbance of the purple formazan was recorded at 560 nm using a BioTek Synergy HT multi-detection microplate plate reader. Each condition was performed in triplicate and three independent experiments were carried out for each cell line.
Human prostate carcinoma (PC3) and human cervix carcinoma (HeLa) cells were obtained from the ATCC. The human lung carcinoma cell line A549 was kindly provided by David E. Root (Whitehead Institute for Biomedical Research). Cells were incubated at 37° C. in 5% CO2 and grown in RPMI (PC3) or DMEM (A549 and HeLa) medium supplemented with 10% fetal bovine serum and 1% penicillin/streptomycin. Cells were passaged every 3 to 4 days and restarted from the frozen stock upon reaching passage number 20.
Solutions of the platinum agents were freshly prepared in sterile PBS before use and the platinum content was quantitated by AAS. Cells were seeded on 96 well plates (1200 cells per well) in 100 μL RPMI or DMEM media\ and incubated for 24 hours. […] The cells were then treated with 20 μL of 3-(4,5-dimethylthiazol-2-yl)-2,5-diphenyltetrazolium bromide (MTT) (5 mg/mL in PBS) and incubated for 4 h. The medium was removed, 100 μL of DMSO were added to the cells, and the absorbance of the purple formazan was recorded at 570 nm using a BioTek Synergy HT multi-detection microplate plate reader. For each cell line, three independent experiments were carried out in triplicate.

[2] = equimolar N-AcMet, 37° C.
Description: NMR spectra were collected on a Varian 500 spectrometer equipped with a triple-resonance broadband inverse probe and a variable temperature unit. The 1-D ^1H NMR kinetic studies were performed in duplicate as a standard time-arrayed experiment using a variable delayed list. Incremented 1-D spectra were processed in exactly the same way and signals of aromatic amine ligands from platinum compounds were integrated. The relative concentrations of the platinum compound at each time point were calculated from peak integrals. […] Reactions of platinum compounds with N-AcMet were performed in NMR tubes containing 2 mM of the Pt complex and 2 mM (1 equiv) of N-AcMet in 10 mM PBS buffer, D2O, pH*7.4 at 37° C. […] Deuterated 3-(trimethylsilyl)propionic acid sodium salt (TMS-PFASS) was used as an internal standard. The pH* values are the measured pH values without correction for the effect of deuterium on the electrode.

[3] = system: GLuc expression in A549 cells; experiment: Transcription assay, globally platinated pGLuc, A549; type: cell-based, human; details: for transcription level (normalized against unplatinated plasmid): Pt/DNA ratio of […] for phenanthriplatin
Description: (§1) Transfection of transcription probes into A549 and HT29 cells with the pGLuc plasmid was carried out using liposomal transfecting agents. Determination of expression levels was tested by Luciferase assays monitored by a luminometer (J. Am. Chem. Soc. 2010, 132, 7429-7435). A549 cells were plated in 96-well plates at 2,000 cells/well and HT29 cells were plated in 96-well plates at 6,000 cells/well. After 48 h incubation (at ˜30% confluence), cells were transfected with 50 ng of platinated plasmids in 25 μL Opti-MEM and 0.125 μL Lipofectamine 2000, and subsequently 50 μL of antibiotics-free DMEM supplemented with 10% FBS. After 2 h, the cells were washed with medium and 100 μL of fresh medium was added. The experiment was carried out in quadruplicate.
(§2) GLuc activity was monitored using a luminescence plate reader (Synergy 2, BioTek, Winooski, Vt., USA). A 10 μL volume of medium at different time points (12, 24, 36, 48, 60 h) was transferred into opaque white 96-well plates, and 25 μL of GLuc assay solution (10 μM colelenterazine (NanoLight Technologies, Pinetop, Ariz., USA) in 2.5 mM acidified methanol (100 mM HCl), buffer (10 mM Tris-HCl pH 7.8, 1 mM EDTA, 0.6 M NaCl)) was added by the automatic injector of the instrument.
(§3) In another embodiment, A549 or HT29 cells were transfected using the platinated transcription probes, and transcription levels were investigated by determining GLuc expression as measured by […] following addition of coelenterazine as a substrate for the exported enzyme. The emission intensities were normalized against unplatinated plasmids as a control. Transcription profiles were obtained by plotting normalized levels of GLuc expression against platination levels (Pt/plasmid ratio) at five different time points. […] An increase in D0 value at different time points represents restoration of transcription.

[4] = system: GLuc expression in HT29 cells; experiment: Transcription assay, globally platinated pGLuc, HT29; type: cell-based, human
Description: as §1, §2, §3

human bone sarcoma U2OS = experiment: MTT assay, U2OS; type: cell-based
Description: Human colon carcinoma HT29, human breast carcinoma MCF7, human bone sarcoma U2OS, human prostate carcinoma PC3, and human cervix carcinoma HeLa cells were obtained from the ATCC. A2780/CP70 cisplatin-resistant human ovarian cancer cells were kindly provided by Dr. Stephen B. Howell (Moores UCSD Cancer Center) and the human lung carcinoma cell lines A549 and normal lung fibroblast MRC5 by David E. Root (Whitehead Institute for Biomedical Research). Cells were incubated at 37° C. in 5% CO2 and grown in RPMI (HT29, A2780/CP70, and PC3) or DMEM (A549, MRC5, HeLa, MCF7, and U2OS) medium supplemented with 10% fetal bovine serum and 1% penicillin/streptomycin. Cells were passed every 3 to 4 days and restarted from a frozen stock upon reaching pass number 20.
Solutions of the platinum compounds were freshly prepared in sterile PBS before use and their concentrations quantitated by atomic absorption spectroscopy. […] The cells were then treated with 20 μL of 3-(4,5-dimethylthiazol-2-yl)-2,5-diphenyltetrazolium bromide (MTT) (5 mg/mL in PBS) and incubated for 4 h. The medium was removed, 100 μL of DMSO was added to the cells, and the absorbance of the purple formazan was recorded at 560 nm using a BioTek Synergy HT multi-detection microplate plate reader. Each condition was performed in triplicate and three independent experiments were carried out for each cell line.

- IC50 ([1]; Table 3, HeLa Cervix, 72-h incubation): 300 ± 20 nM
- IC50 ([1]; Table 5, HeLa, 72-h incubation): 300 ± 20 nM
- IC50 ([1]; Table 11 (Example 3), HeLa Cervix, 72 h): 210 ± 35 nM
- IC50 ([1]; Table 14, HeLa, MTT assay): 370 ± 40 nM
- IC50 (human bone sarcoma U2OS; Table 3, U2OS Bone, 72-h incubation): 590 ± 40 nM
- IC50 (human bone sarcoma U2OS; Table 5, U2OS, 72-h incubation): 590 ± 40 nM
- IC50 (human bone sarcoma U2OS; Table 14, U2OS, MTT assay): 1050 ± 20 nM
Substance: cis-[Pt(NH3)2(phenanthridine)Cl]NO3 [phenanthriplatin]
- second-order rate constant, reaction with N-AcMet [2]: 0.00944 M⁻¹ s⁻¹
- transcription level (normalized against unplatinated plasmid) ([3]; A549, 12 h): 19.5%
- D0 (Pt lesions per plasmid required to reduce transcription levels to 37% of control) ([3]; A549, 12 h after transfection): 14.2 Pt/plasmid
- D0 (Pt lesions per plasmid required to reduce transcription levels to 37% of control) ([3]; A549, 24 h after transfection): 17.3 Pt/plasmid
- D0 (Pt lesions per plasmid required to reduce transcription levels to 37% of control) ([3]; A549, 36 h after transfection): 22.2 Pt/plasmid
- D0 (Pt lesions per plasmid required to reduce transcription levels to 37% of control) ([3]; A549, 48 h after transfection): 31.6 Pt/plasmid
- transcription level (normalized against unplatinated plasmid) ([3]; A549, 60 h): 51.1%
- D0 (Pt lesions per plasmid required to reduce transcription levels to 37% of control) ([3]; A549, 60 h after transfection): 39.8 Pt/plasmid
- D0 (Pt lesions per plasmid required to reduce transcription levels to 37% of control) ([4]; HT29, 12 h after transfection): 18.9 Pt/plasmid
- D0 (Pt lesions per plasmid required to reduce transcription levels to 37% of control) ([4]; HT29, 48 h after transfection): 23.5 Pt/plasmid
- transcription level (normalized against unplatinated plasmid) ([4]; HT29, 60 h, Pt/DNA ratio of […] for phenanthriplatin): 37.6%
- D0 (Pt lesions per plasmid required to reduce transcription levels to 37% of control) ([4]; HT29, 60 h after transfection): 25.0 Pt/plasmid
